From paper PMC2116148 (The Journal of Cell Biology, 1990)

Key:
Type in all cases: cell-based, mouse
[1] = tested on: K1735 M4 murine melanoma cell line; experiment: Cell adhesion and spreading assay on peptide- or protein-coated Immulon 1 plates
M4 melanoma cells [2] = details: even at the highest concentrations tested (Fig. 7, up to 500 μg/ml)
M4 melanoma cells [3] = details: filters coated with type IV collagen; soluble control peptide (Fig. 3c)

| Substance | melanoma cell spreading compared with peptide IV-H1 ([1]; all peptide concentrations (5-500 μg/ml), all time points (20-90 min) (Fig. 6)) | melanoma cell adhesion on alanyl-substituted peptide compared with peptide IV-H1 ([1]; coated surfaces, up to 500 μg/ml (Fig. 5)) | cell motility through coated filters (M4 melanoma cells [2]) | effect on type IV collagen-mediated cell motility (M4 melanoma cells [3]) | promotion of melanoma cell adhesion or spreading ([1]; control peptide, coated surface) |
| --- | --- | --- | --- | --- | --- |
| GVKGDKGNAGWAGAA(Y) [peptide IV-H1A] | decreased ability to spread | nearly the same extent | not observed |  |  |
| GVPGKDGQAGQPGQP(Y) [peptide 17] |  |  |  | no effect | does not promote |
